Measurements: patent US9428504B2, “7-hydroxy-spiropipiperidine indolinyl antagonists of P2Y1 receptor” (BRISTOL-MYERS SQUIBB COMPANY, priority 2012, dated 2016)
Structures can show the parent of a compound that is named as a salt.

How the values were obtained:
[1] = molecular target: cloned human P2Y1 receptors (Homo sapiens (Human), UniProt P47900); assay: Binding Assay B: Scintillation Proximity Assay (SPA) for P2Y1 binding; conditions: SPA, [33P] 2MeS-ADP displacement; read-out: P2Y1 Ki (nM) using binding assay B
Outline: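 Membranes with ~15 fmol receptor (1.7 μg total protein) incubated with 0.3 nM [^33P]-labelled radioligand for 1 h at room temperature to completion. After centrifugation and removal of aqueous phase, bound radioactivity read by scintillation proximity; inhibition of radioligand binding measured.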

[2] = tested on: human platelet rich plasma (PRP); assay: ADP induced platelet aggregation assay; conditions: Homo sapiens, Platelet, read-out: PA IC50 (μM) @ 10 μM ADP, platelet aggregation induced by 10 μM ADP, human PRP

Sequence of cloned human P2Y1 receptors (P47900 whole entry): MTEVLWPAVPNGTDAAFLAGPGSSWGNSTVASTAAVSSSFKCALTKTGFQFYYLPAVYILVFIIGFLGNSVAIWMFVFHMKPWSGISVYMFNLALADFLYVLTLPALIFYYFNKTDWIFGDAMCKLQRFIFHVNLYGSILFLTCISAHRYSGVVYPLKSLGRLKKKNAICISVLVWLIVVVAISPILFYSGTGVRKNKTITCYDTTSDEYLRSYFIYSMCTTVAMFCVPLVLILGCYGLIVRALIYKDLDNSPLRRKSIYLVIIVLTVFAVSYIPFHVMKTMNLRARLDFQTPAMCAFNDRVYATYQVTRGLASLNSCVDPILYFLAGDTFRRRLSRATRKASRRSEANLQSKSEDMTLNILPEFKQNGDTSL

| SMILES | Ki [1] | IC50 [2] |
| --- | --- | --- |
| CC(C)(C)CN1CCC2(CC1)CN(c1ccccc1NC(=O)Nc1nc3ccc(F)cc3s1)c1c(O)ccc(C#N)c12 [Example 81, 1-(2-(4-Cyano-7-hydroxy-1′-neopentylspiro[indoline-3,4′-piperidine]-l-yl)phenyl)-3-(6-fluorobenzo[d]thiazol-2-yl) urea, trifluoroacetic acid salt] | 5 nM | 0.6 µM |
| CC(C)(C)CN1CCC(NC(=O)Nc2ccccc2N2CC3(CCN(CC(C)(C)C)CC3)c3c(C(F)(F)F)ccc(O)c32)CC1 [Example 24, 1-(2-(7-Hydroxy-1′-neopentyl-4-(trifluoromethyl)spiro[indoline-3,4′-piperidine]-1-yl)phenyl)-3-(1-neopentylpiperidin-4-yl)urea] | 14.8 nM | 0.4 µM |
| CC(C)(C)CN1CCC2(CC1)CN(c1ccccc1NC(=O)Nc1nc3ccc(Cl)cc3s1)c1c(O)ccc(-c3nc4cccc(Cl)c4s3)c12 [Example 124, 1-(6-Chlorobenzo[d]thiazol-2-yl)-3-(2-(4-(7-chlorobenzo[d]thiazol-2-yl)-7-hydroxy-1′-neopentylspiro[indoline-3,4′-piperidin]-1-yl)phenyl)urea] | 51.5 nM | 1 µM |
| CC(C)(C)CN1CCC2(CC1)CN(c1ccccc1NC(=O)Nc1ccc(OC(F)(F)F)cc1)c1c(O)ccc(Cl)c12 [Example 59, 1-(2-(4-Chloro-7-hydroxy-1′-neopentylspiro[indoline-3,4′-piperidine]-1-yl)phenyl)-3-(4-(trifluoromethoxy)phenyl)urea] | 7.2 nM | 0.4 µM |
| CC(C)(C)CN1CCC2(CC1)CN(c1ccccc1NC(=O)Nc1ccc(OC(F)(F)F)cc1)c1c2ccc(F)c1O [Example 14, 1-(2-(6-Fluoro-7-hydroxy-1′-neopentylspiro[indoline-3,4′-piperidine]-1-yl)phenyl)-3-(4-(trifluoromethoxy)phenyl)urea] | 12.8 nM | 2.1 µM |
| CC(C)(C)CN1CCC2(CC1)CN(c1ncccc1NC(=O)Nc1nc3ccc(Cl)nc3s1)c1c(O)ccc(C(F)(F)F)c12 [Example 176, 1-(5-Chlorothiazolo[5,4-b]pyridin-2-yl)-3-(2-(7-hydroxy-1′-neopentyl-4-(trifluoromethyl)spiro[indoline-3,4′-piperidine]-1-yl)pyridin-3-yl)urea] | 7.2 nM | 0.4 µM |
| CC(C)(C)CN1CCC2(CC1)CN(c1ccccc1NC(=O)Nc1ccc(OC(F)(F)F)cc1)c1c(O)ccc(-c3nc4cccc(Cl)c4s3)c12 [Example 123, 1-(2-(4-(7-Chlorobenzo[d]thiazol-2-yl)-7-hydroxy-1′-neopentylspiro[indoline-3,4′-piperidin]-1-yl)phenyl)-3-(4-(trifluoromethoxy)phenyl)urea] | 32.5 nM | 0.6 µM |
| CC(C)(C)CN1CCC2(CC1)CN(c1ccccc1NC(=O)Nc1ccc(OC(F)F)cc1)c1c(O)ccc(C(F)(F)F)c12 [Example 17, 1-(4-(Difluoromethoxy)phenyl)-3-(2-(7-hydroxy-1′-neopentyl-4-(trifluoromethyl)spiro[indoline-3,4′-piperidine]-1-yl)phenyl)urea] | 9 nM | 0.4 µM |
| COc1ccc2nc(-c3ccc(O)c4c3C3(CCN(CC(C)(C)C)CC3)CN4c3ccccc3NC(=O)Nc3ccc(OC(F)(F)F)cc3)sc2c1 [Example 130, 1-(2-(7-Hydroxy-4-(6-methoxybenzo[d]thiazol-2-yl)-1′-neopentylspiro[indoline-3,4′-piperidin]-1-yl)phenyl)-3-(4-(trifluoromethoxy)phenyl)urea] | 16.8 nM | 0.6 µM |
| CC(C)CN1CCC(c2ccc(NC(=O)Nc3ccccc3N3CC4(CCN(CC(C)(C)C)CC4)c4c(Cl)c(F)cc(O)c43)cc2)CC1 [Example 105, 1-(2-(4-Chloro-5-fluoro-7-hydroxy-1′-neopentylspiro [indoline-3,4′-piperidine]-1-yl)phenyl)-3-(4-(1-isobutylpiperidin-4-yl)phenyl)urea] | 12.7 nM | 1.1 µM |
